Data from patent US10221163B2 (priority 2015, dated 2019).
Where two headings read alike, the source gives them in different places.

Key:
[1] = system: Escherichia coli expressing NDM-1 (CLB30005, CLB30016); format: cell-based; conditions: with imipenem 1 μg/ml; 95% inhibition of bacterial growth
Summary of the method: (§1)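 Imipenem 1 μg/ml + inhibitor; MBL-expressing clinical strains in 1.1×CAMHB, inoculum from saline suspension diluted 1:100; 35° C, 22–24 h; absorbance read-out.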

[2] = system: Serratia marcescens expressing IMP-1 (CL5741); format: cell-based; conditions: with imipenem 1 μg/ml; 95% inhibition of bacterial growth
Summary of the method: as §1

[3] = system: Klebsiella pneumoniae expressing VIM-1 (IHMA599644); format: cell-based; conditions: with imipenem 1 μg/ml; 95% inhibition of bacterial growth
Summary of the method: as §1

[4] = system: Pseudomonas aeruginosa efflux− (MB9799), IMP-1; format: cell-based; conditions: concentration restoring susceptibility to imipenem at 2 μg/mL in the presence of a class A, C, D serine β-lactamase inhibitor closely related to relebactam
Summary of the method: (§2)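 Microbroth MIC tests in PAO1-background strains with fixed imipenem and/or ceftazidime, usually at the CLSI breakpoint, plus fixed class A/C β-lactamase inhibitor against AmpC. MBL inhibitor titrated; concentration restoring susceptibility recorded and compared as fold difference between efflux+ MB9798 and efflux− MB9799.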

[5] = molecular target: VIM-1 (Pseudomonas aeruginosa (strain ATCC 15692 / DSM 22644 / CIP 104116 / JCM 14847 / LMG 12228 / 1C / PRS 101 / PAO1), UniProt A0A0F7KYQ8); test: biochemical; conditions: CCF2-FA substrate, 30 pM enzyme, 2 hours at 25° C.
Summary of the method: (§3)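 Inhibitor was mixed with the metallo-β-lactamase and CCF2-FA. After 2 hours at 25° C, fluorescence of the coumarin–fluorescein cephalosporin substrate was read. IC50 was calculated with a 4-parameter fit.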

[6] = system: Pseudomonas aeruginosa MB9798 vs MB9799; conditions: ratio MITC95 PA_9798/MITC95 PA_9799
Summary of the method: as §2

[7] = system: Pseudomonas aeruginosa efflux+ (MB9798), IMP-1; format: cell-based; conditions: concentration restoring susceptibility to imipenem at 2 μg/mL in the presence of a class A, C, D serine β-lactamase inhibitor closely related to relebactam
Summary of the method: as §2

[8] = molecular target: IMP-1 (Serratia marcescens, UniProt P52699); test: biochemical; format: biochemical; conditions: fluorescence assay, CCF2-FA substrate, 2 pM enzyme, 2 hours at 25° C.; read-out: IMP-1 IC50
Summary of the method: as §3

[9] = molecular target: NDM-1 (Klebsiella pneumoniae, UniProt C7C422); test: biochemical; format: biochemical; conditions: fluorescence assay, CCF2-FA substrate, 1 pM enzyme, 2 hours at 25° C.; read-out: NDM-1 IC50
Summary of the method: as §3

[10] = fluorescence assay, read-out: VIM-1 IC50

IMP-1, sequence (P52699 whole entry, looked up, species assumed): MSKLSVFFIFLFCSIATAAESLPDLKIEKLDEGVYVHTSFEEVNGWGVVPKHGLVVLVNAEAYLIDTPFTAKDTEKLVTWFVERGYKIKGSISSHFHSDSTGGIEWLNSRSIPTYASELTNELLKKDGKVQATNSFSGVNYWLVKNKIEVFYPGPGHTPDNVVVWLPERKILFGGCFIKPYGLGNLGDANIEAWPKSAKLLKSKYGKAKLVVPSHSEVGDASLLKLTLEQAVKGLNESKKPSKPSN
NDM-1, sequence (C7C422 whole entry, looked up, species assumed): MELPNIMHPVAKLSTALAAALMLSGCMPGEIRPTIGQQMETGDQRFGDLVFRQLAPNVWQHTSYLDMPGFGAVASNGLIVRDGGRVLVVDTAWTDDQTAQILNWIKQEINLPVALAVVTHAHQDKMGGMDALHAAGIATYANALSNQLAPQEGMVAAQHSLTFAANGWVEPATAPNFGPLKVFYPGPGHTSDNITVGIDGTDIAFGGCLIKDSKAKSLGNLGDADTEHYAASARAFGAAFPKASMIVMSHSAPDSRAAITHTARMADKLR

Compound | Escherichia coli expressing NDM-1 (CLB30016) MITC95 [1] [µM] | Serratia marcescens expressing IMP-1 (CL5741) MITC95 [2] [µM] | Klebsiella pneumoniae expressing VIM-1 (IHMA599644) MITC95 [3] [µM] | P. aeruginosa expressing IMP-1, efflux − (MB9799) MITC95 [4] [µM] | IC50 [5, 10] [pM] | Efflux ratio [6] | P. aeruginosa expressing IMP-1, efflux + (MB9798) MITC95 [7] [µM] | IC50 [8] [pM] | IC50 [9] [pM] | IC50 ([5]; VIM-1 IC50, fluorescence assay) [pM]
Nc1nc2c(-c3ccc(S(=O)(=O)NC4CCC5OC4CC5N)c(S(N)(=O)=O)c3-c3nnn[nH]3)cccc2s1.O=C(O)C(F)(F)F (stereo not drawn) [Example 95, 2-(4-(2-aminobenzo[d]thiazol-4-yl)-2-sulfamoyl-3-(1H-tetrazol-5-yl)phenylsulfonamido)-8-oxabicyclo[3.2.1]octan-6-aminium 2,2,2-trifluoroacetate] | 1.563 | 3.125 | 3.125 | 1.563 | 173 | 1.00 | 1.563 | 193 | 27 | –
Nc1nc2c(-c3ccc(S(=O)(=O)NCC4COCCN4)c(S(N)(=O)=O)c3-c3nnn[nH]3)cccc2s1.O=C(O)C(F)(F)F (stereo not drawn) [Example 96, 3-((4-(2-aminobenzo[d]thiazol-4-yl)-2-sulfamoyl-3-(1H-tetrazol-5-yl)phenylsulfonamido)methyl)morpholin-4-ium 2,2,2-trifluoroacetate] | 6.25 | 3.125 | 6.25 | 3.125 | – | 1.00 | 3.125 | 402 | 75.7 | 299
Nc1nc2c(-c3ccc(S(=O)(=O)NC4CN5CCC4CC5)c(S(N)(=O)=O)c3-c3nnn[nH]3)cccc2s1.O=C(O)C(F)(F)F (stereo not drawn) [Example 97, 3-(4-(2-aminobenzo[d]thiazol-4-yl)-2-sulfamoyl-3-(1H-tetrazol-5-yl)phenylsulfonamido)quinuclidin-1-ium 2,2,2-trifluoroacetate] | 3.125 | 3.125 | 3.125 | 1.563 | – | 1.00 | 1.563 | 383 | 21.4 | 222
CN(CCc1ccncc1)S(=O)(=O)c1ccc(-c2cccc3sc(N)nc23)c(-c2nnn[nH]2)c1S(N)(=O)=O.O=C(O)C(F)(F)F [Example 100, 4-(2-(4-(2-aminobenzo[d]thiazol-4-yl)-N-methyl-2-sulfamoyl-3-(1H-tetrazol-5-yl)phenylsulfonamido)ethyl)pyridin-1-ium 2,2,2-trifluoroacetate] | 50 | 25 | 200 | 6.25 | – | 32.00 | 200 | 3260 | 3880 | 12600
CC1(CN)CN(S(=O)(=O)c2ccc(-c3cccc4sc(N)nc34)c(-c3nnn[nH]3)c2S(N)(=O)=O)C1.O=C(O)C(F)(F)F [Example 101, (1-((4-(2-aminobenzo[d]thiazol-4-yl)-2-sulfamoyl-3-(1H-tetrazol-5-yl)phenyl)sulfonyl)-3-methylazetidin-3-yl)methanaminium 2,2,2-trifluoroacetate] | 3.125 | 3.125 | 6.25 | 3.125 | – | 1.00 | 3.125 | 1250 | 288 | 744
CN1CCC(CNS(=O)(=O)c2ccc(-c3cccc4sc(N)nc34)c(-c3nnn[nH]3)c2S(N)(=O)=O)C1.O=C(O)C(F)(F)F (stereo not drawn) [Example 102, 3-((4-(2-aminobenzo[d]thiazol-4-yl)-2-sulfamoyl-3-(1H-tetrazol-5-yl)phenylsulfonamido)methyl)-1-methylpyrrolidin-1-ium 2,2,2-trifluoroacetate] | 3.125 | 1.563 | 3.125 | 1.563 | – | 0.50 | 0.7813 | 263 | 32.4 | 194
Nc1nc2c(-c3ccc(S(=O)(=O)N[C@H]4CO[C@H]5[C@@H]4OC[C@H]5N)c(S(N)(=O)=O)c3-c3nnn[nH]3)cccc2s1.O=C(O)C(F)(F)F [Example 103, (3R,3aR,6S,6aR)-6-(4-(2-aminobenzo[d]thiazol-4-yl)-2-sulfamoyl-3-(1H-tetrazol-5-yl)phenylsulfonamido)hexahydrofuro[3,2-b]furan-3-aminium 2,2,2-trifluoroacetate] | 3.125 | 3.125 | 3.125 | 1.563 | – | 2.00 | 3.125 | 226 | 29.3 | 196
NCC1CN(S(=O)(=O)c2ccc(-c3cccc4sc(N)nc34)c(-c3nnn[nH]3)c2S(N)(=O)=O)CCO1.O=C(O)C(F)(F)F (stereo not drawn) [Example 104, (4-((4-(2-aminobenzo[d]thiazol-4-yl)-2-sulfamoyl-3-(1H-tetrazol-5-yl)phenyl)sulfonyl)morpholin-2-yl)methanaminium 2,2,2-trifluoroacetate] | 1.563 | 3.125 | 6.25 | 1.563 | 1590 | 2.00 | 3.125 | 1240 | 228 | –
CN(C1CNC1)S(=O)(=O)c1ccc(-c2cccc3sc(N)nc23)c(-c2nnn[nH]2)c1S(N)(=O)=O.O=C(O)C(F)(F)F [Example 105, 3-(4-(2-aminobenzo[d]thiazol-4-yl)-N-methyl-2-sulfamoyl-3-(1H-tetrazol-5-yl)phenylsulfonamido)azetidin-1-ium 2,2,2-trifluoroacetate] | 1.563 | 1.563 | 6.25 | 1.563 | – | 1.00 | 1.563 | 1180 | 206 | 1140
